Measurements published in US8846671B2, “Heterocyclic alkynyl benzene compounds and medical compositions and uses thereof” (Guangzhou Institute of Biomedicine and Health, Chinese …, priority 2010, dated 2014).
Where a name gives a salt, the structure may show the parent alone. Read-outs that look alike come from different tables or passages of the source. One block for each molecule: values may come before it.

Tests used:
[1] = tested on: K562 cells (human CML cell line expressing native Bcr-Abl); assay: Xenograft model of K562 in nude mice, oral dosing; details: for anti-tumor effect compared with imatinib / effect on body weight: po, qd
Experimental: Tumor volume and body weight were monitored once every 2 days (In each group, the tumor volume and body weight at beginning of the day were recorded). Tumor volume was calculated as […]*a*b*b.L×W2/2 (a and b are the length and width of the tumor, respectively). […] The results were shown in Drawings as FIGS. 1, 2, 3, 4, 5, 6, 7 and 8.

[2] = Pharmacokinetics and bioavailability in rats; format: in vivo; details: SD rats; for BA(% Oral bioavailability) / bioavailability: calculated according to AUC data, PO vs IV; for bioavailability: read-out: BA(% Oral bioavailability)
Summary of the method: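 Rats dosed, heparinized blood sampled at set times, plasma stored at -20 °C, acetonitrile-precipitated and analyzed by HPLC-MS. Compartmental and non-compartmental parameters derived; bioavailability from AUC.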

[3] = tested on: K562 (human chronic myelogenous leukemia cell line); assay: tumor cell proliferation, MTT or CCK8 assay, 72 h incubation; format: cell-based; details: K562, 72 h, read-out: IC50 on tumor cell proliferation, K562
Summary of the method: (§1)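 Leukemia cell lines were exposed to compounds at 1×10^−10˜1×10^−5M for 72 h. Proliferation was read by MTT (570 nm) or CCK8 (450/650 nm) after a further 4 h incubation. IC50 values were calculated from inhibition of proliferation.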

[4] = tested on: MEG-01 (Human megakaryoblastic leukaemia cell line); assay: as above; format: cell-based; details: MEG-01, 72 h, read-out: IC50 on tumor cell proliferation, MEG-01
Summary of the method: as §1

[5] = tested on: MOLT-4 (Human acute lymphoblastic leukemia cell line); assay: as above; format: cell-based; details: MOLT-4, 72 h, read-out: IC50 on tumor cell proliferation, MOLT-4
Summary of the method: as §1

U937 Cell line = assay: as above; format: cell-based; details: Homo sapiens, read-out: IC50 on tumor cell proliferation, U937
Summary of the method: as §1

[6] = tested on: K562R cells (imatinib-resistant cell line); assay: as above; format: cell-based; details: Homo sapiens, K-562R, read-out: IC50 on tumor cell proliferation, K562R cells
[7] = target: BAF3-T315I cells (Ba/F3 cell line stably expressing BCR/ABL T315I) (Homo sapiens, UniProt P00519, T315I, cells depend on it); assay: as above; format: cell-based, mice
[8] = tested on: Ba/F3-Bcr/ABL-T315I cells; assay: Xenograft model of BAF3-T315I in SCID nude mice, oral dosing
Experimental: When the mean tumor volume reached 300-500 mm^3, mice were grouped and administered orally. […] Tumor volume and body weight were monitored once every 2 days (In each group, the tumor volume and body weight at beginning of the day were recorded). Tumor volume was calculated as π/6*a*b*b.L×W2/2 (a and b are the length and width of the tumor, respectively). […] The results were shown in Drawings as FIG. 9, 10, 11, 12, 13, 14, 15, 16.

[9] = both sexes, Sprague-Dawley, rat, plasma, iv, 10 mg/kg, IV 10 mg/kg
[10] = both sexes, Sprague-Dawley, rat, plasma, iv, 10 mg/kg, IV 10 mg/kg, read-out: Cmax
[11] = both sexes, Sprague-Dawley, rat, plasma, iv, 10 mg/kg, IV 10 mg/kg, read-out: Tmax
[12] = both sexes, Sprague-Dawley, rat, plasma, po, 25 mg/kg, PO 25 mg/kg
[13] = both sexes, Sprague-Dawley, rat, plasma, po, 25 mg/kg, PO 25 mg/kg, read-out: Cmax
[14] = both sexes, Sprague-Dawley, rat, plasma, po, 25 mg/kg, PO 25 mg/kg, read-out: Tmax
[15] = read-out: IC50 on tumor cell proliferation, BAF3-T315I cells; Ba/F3 expressing BCR/ABL T315I, 72 h, Table 1
[16] = Ba/F3 expressing BCR/ABL T315I, 72 h, Table 1; read-out: IC50 on tumor cell proliferation, BAF3-T315I cells
[17] = both sexes, Sprague-Dawley, rat, plasma, po
[18] = Ba/F3-Bcr/ABL-T315I xenograft, 25 mg/kg po, q2d or qd
[19] = both sexes, Sprague-Dawley, rat, plasma, iv, 5 mg/kg, IV 5 mg/kg
[20] = both sexes, Sprague-Dawley, rat, plasma, iv, 5 mg/kg, IV 5 mg/kg, read-out: Cmax
[21] = both sexes, Sprague-Dawley, rat, plasma, iv, 5 mg/kg, IV 5 mg/kg, read-out: Tmax
[22] = 20 mg/kg po, q2d or qd (Example 51)

IC50 [3]: 1.1 nM
IC50 [4]: > 100 nM
IC50 [5]: > 100 nM
IC50 (U937 Cell line; U-937, 72 h): > 100 nM
IC50 [6]: 0.0897 µM
GI50 [7, 15]: 0.0998 µM
pharmacokinetics parameters, overall judgement ([2]; corresponding pharmaceutical acceptable salt forms): adequate pharmacokinetics parameters
Compound: CNc1ncc(C#Cc2cc(C(=O)Nc3cc(-n4cnc(C)c4)cc(C(F)(F)F)c3)ccc2C)cn1 [D800, 4-methyl-N-(3-(4-methyl-1H-imidazol-1-yl)-5-(trifluoromethyl)phenyl)-3-(2-(2-(methylamino)pyrimidin-5-yl)ethynyl)benzamide]

IC50 ([3]; MTT or CCK8, nM): 1.38 nM
IC50 ([4]; MTT or CCK8, nM): 210 nM
IC50 ([5]; MTT or CCK8, nM): > 100 nM
IC50 (U937 Cell line; U-937, 72 h, MTT or CCK8, nM): > 100 nM
IC50 ([6]; imatinib-resistant K562R): 0.142 µM
GI50 [7, 16]: 0.394 µM
Compound: Cc1ncn(-c2cc(NC(=O)c3ccc(C)c(C#Cc4cnc5ccnn5c4)c3)cc(C(F)(F)F)c2)n1 [D818, 4-methyl-N-(3-(3-methyl-1H-1,2,4-triazol-1-yl)-5-(trifluoromethyl)phenyl)-3-(2-(pyrazolo[1,5-a]pyrimidin-6-yl)ethynyl)benzamide]

IC50 ([3]; MTT or CCK8, nM): 1.5 nM
IC50 ([4]; MTT or CCK8, nM): 122 nM
IC50 ([5]; MTT or CCK8, nM): 146 nM
IC50 (U937 Cell line; U-937, 72 h, MTT or CCK8, nM): 2210 nM
IC50 ([6]; imatinib-resistant K562R): 0.146 µM
GI50 [7, 16]: 3.12 µM
Compound: Cc1ccc(C(=O)Nc2cc(-n3ccnc3)cc(C(F)(F)F)c2)cc1C#Cc1cnc2ccnn2c1 [D819, N-(3-(1H-imidazol-1-yl)-5-(trifluoromethyl)phenyl)-4-methyl-3-(2-(pyrazolo[1,5-a]pyrimidin-6-yl)ethynyl)benzamide]

IC50 [3]: 1.37 nM
IC50 [4]: > 100 nM
IC50 [5]: 134 nM
IC50 (U937 Cell line; U-937, 72 h): > 100 nM
IC50 [6]: 0.0352 µM
GI50 [7, 15]: 0.276 µM
Compound: Cc1cn(-c2cc(NC(=O)c3ccc(C)c(C#Cc4cnc(NCCO)nc4)c3)cc(C(F)(F)F)c2)cn1 [D820, 3-(2-(2-(2-hydroxyethylamino)pyrimidin-5-yl)ethynyl)-4-methyl-N-(3-(4-methyl-1H-imidazol-1-yl)-5-(trifluoromethyl)phenyl)benzamide]

The remaining lines, values behind:

Compound: Cc1cn(-c2cc(NC(=O)c3ccc(C)c(C#Cc4cnc(NC5CC5)nc4)c3)cc(C(F)(F)F)c2)cn1 [D747 hydrochloride salt, 3-(2-(2-(cyclopropylamino)pyrimidin-5-yl)ethynyl)-4-methyl-N-(3-(4-methyl-1H-imidazol-1-yl)-5-(trifluoromethyl)phenyl)benzamide]
effect on tumor growth ([1]; 25 mg/kg po qd): completely inhibit the tumor growth
anti-tumor effect compared with imatinib [1]: better anti-tumor effect than imatinib
effect on body weight [1]: did not cause the body weight loss
BA(% Oral bioavailability) [2]: 35.3%
AUC(0-inf) [2, 9]: 285000 ng·h/mL
half-life [2, 9]: 71.8 h
Cmax [2, 10]: 49800 ng/mL
Tmax [2, 11]: 0.033 h
AUC(0-inf) [2, 12]: 252000 ng·h/mL
half-life [2, 12]: 48.7 h
Cmax [2, 13]: 6200 ng/mL
Tmax [2, 14]: 4.5 h

Compound: Cc1cn(-c2cc(NC(=O)c3ccc(C)c(C#Cc4cnc5[nH]ncc5c4)c3)cc(C(F)(F)F)c2)cn1 [D767 mesylate salt, 3-(2-(1H-pyrazolo[3,4-b]pyridin-5-yl)ethynyl)-4-methyl-N-(3-(4-methyl-1H-imidazol-1-yl)-5-(trifluoromethyl)phenyl)benzamide]
effect on tumor growth ([1]; 25 mg/kg po qd): completely inhibit the tumor growth
effect on body weight [1]: did not cause the body weight loss
Tmax ([2]; IV 5 mg/kg): 0.033 h
AUC(0-∞) ([2]; IV 5 mg/kg, 5 mg/kg): 59222.45 ng·h/mL
Cmax ([2]; IV 5 mg/kg, 5 mg/kg): 14093.75 ng/mL
T1/2 ([2]; IV 5 mg/kg, 5 mg/kg): 4.471 h
AUC(0-∞) ([2]; PO 25 mg/kg, 25 mg/kg): 27850.615 ng·h/mL
Cmax ([2]; PO 25 mg/kg, 25 mg/kg): 2322.5 ng/mL
T1/2 ([2]; PO 25 mg/kg, 25 mg/kg): 5.949 h
Tmax ([2]; PO 25 mg/kg, 25 mg/kg): 2.75 h
BA(% Oral bioavailability) [2]: 9.4%

Compound: CNc1ncc(C#Cc2cc(C(=O)Nc3cc(-n4cnc(C)c4)cc(C(F)(F)F)c3)ccc2C)cn1 [D800 mesylate, 4-methyl-N-(3-(4-methyl-1H-imidazol-1-yl)-5-(trifluoromethyl)phenyl)-3-(2-(2-(methylamino)pyrimidin-5-yl)ethynyl)benzamide]
effect on tumor growth ([1]; 25 mg/kg po qd): completely inhibit the tumor growth
effect on body weight [1]: did not cause the body weight loss

Compound: Cc1cn(-c2cc(NC(=O)c3ccc(C)c(C#Cc4cnc5ccnn5c4)c3)cc(C(F)(F)F)c2)cn1 [D822 mesylate salt, 4-methyl-N-(3-(4-methyl-1H-imidazol-1-yl)-5-(trifluoromethyl)phenyl)-3-(2-(pyrazolo[1,5-a]pyrimidin-6-yl)ethynyl)benzamide]
effect on tumor growth ([1]; 25 mg/kg po qd): completely inhibit the tumor growth
anti-tumor effect compared with imatinib [1]: better anti-tumor effect than imatinib
effect on body weight [1]: did not cause the body weight loss
AUC(0-inf) [2, 9]: 13800 ng·h/mL
half-life [2, 9]: 3.15 h
Cmax [2, 10]: 23100 ng/mL
Tmax [2, 11]: 0.033 h
AUC(0-inf) [2, 12]: 10700 ng·h/mL
half-life [2, 12]: 8.04 h
Cmax [2, 13]: 814 ng/mL
Tmax [2, 14]: 3 h
bioavailability [2, 17]: 31.2%

Compound: Cc1ccc(C(=O)Nc2ccc(CN3CCN(C)CC3)c(C(F)(F)F)c2)cc1C#Cc1cnc2[nH]ncc2c1 [D824 dimesylate salt, 3-(2-(1H-pyrazolo[3,4-b]pyridin-5-yl)ethynyl)-4-methyl-N-(4-((4-methylpiperazin-1-yl)methyl)-3-(trifluoromethyl)phenyl)benzamide dimesylate]
effect on tumor growth ([1]; 5 mg/kg po qd): completely inhibit the tumor growth
effect on body weight [1]: did not cause the body weight loss
effect on body weight [8, 18]: help the body weight gain
effect on tumor growth [8, 18]: almost completely suppressed the tumor growth
Tmax ([2]; PO 25 mg/kg, dimesylate, 25 mg/kg): 4.25 h
AUC(0-inf) [2, 19]: 4300 ng·h/mL
half-life [2, 19]: 6.1 h
Cmax [2, 20]: 2240 ng/mL
Tmax [2, 21]: 0.033 h
AUC(0-inf) [2, 12]: 12600 ng·h/mL
half-life [2, 12]: 8.72 h
Cmax [2, 13]: 775 ng/mL
bioavailability [2, 17]: 58.7%

Compound: Cc1ccc(C(=O)Nc2ccc(CN3CCN(C)CC3)c(C(F)(F)F)c2)cc1C#Cc1cnc2ccnn2c1 [D856 dimesylate salt, 4-methyl-N-(4-((4-methylpiperazin-1-ylmethyl)-3-(trifluoromethyl)phenyl)-3-(2-(pyrazolo[1,5-a]pyrimidin-6-yl)ethynyl)benzamide dimesylate]
effect on tumor growth [8, 22]: inhibit the tumor growth
AUC(0-inf) [2, 19]: 8170 ng·h/mL
half-life [2, 19]: 20 h
Cmax [2, 20]: 934 ng/mL
Tmax [2, 21]: 0.033 h
AUC(0-inf) [2, 12]: 31800 ng·h/mL
half-life [2, 12]: 22.2 h
Cmax [2, 13]: 900 ng/mL
Tmax [2, 14]: 6.5 h
bioavailability [2, 17]: 78%

Compound: Cc1cn(-c2cc(NC(=O)c3ccc(C)c(C#Cc4cnc5[nH]ncc5c4)c3)cc(C(C)(C)C)c2)cn1 [D968 mesylate, 3-(2-(1H-pyrazolo[3,4-b]pyridin-5-yl)ethynyl)-N-(3-tert-butyl-5-(4-methyl-1H-imidazol-1-yl)phenyl)-4-methylbenzamide mesylate]
effect on tumor growth [8, 22]: inhibit the tumor growth
